Experimental data as given in patent US20260227303A1, “SYSTEMS AND METHODS FOR MEASURING PARTICLE SIZE IN TISSUE AND TURBID MEDIA” (The General Hospital Corporation, priority 2023, published 2026).

Tested on: platelets in whole blood
Experiment: Platelet function testing: laser speckle particle sizing of platelet aggregate size in lysed whole blood
Type: cell-based, human
Description: To prepare the 4660 μM CPD stock solution, a Plavix tablet (e.g., 75 mg, Bristol-Meyer Squibb) was crushed to powder, mixed with 50 ml of deionized water, sonicated for 10 minutes, and incubated at 50° C. in a water bath for 3 minutes. Following institutional review board (IRB) approval, de-identified blood specimens from two patients undergoing routine coagulation testing were collected in 0.105 M sodium citrate vacutainer system (e.g., Becton & Dickinson, Co., Franklin Lakes, NJ, USA) from the MGH special coagulation laboratory. The specimen was divided into four samples of 66 μl. The first sample (control) was mixed with 20 μl of saline. The second sample was mixed 5 μl of saline and 10 μl of LB. The third sample was mixed with 5 μl of saline and 10 μl of LB, and 5 μl ADP stock solution (e.g., 5 μM, Helena Laboratories, Beaumont, TX, USA). Finally, the 4th and last sample was mixed 10 μl of LB 5 μl of ADP and 5 μl of diluted CPD (5 μM). The samples were loaded in imaging chambers and speckle image acquisition started promptly. For each of the specimens, both the parallel and perpendicularly polarized speckle frames were captured for 1 second, at 750 fps.
The third sample entailed 66 μl of whole blood plus 5 μl of PBS, 10 μl of lysis buffer, and 5 μl Adenosine diphosphate (ADP), a platelet agonist to initiate platelet aggregation. […]

SMILES | estimated particle size (average radius) (66 μl whole blood + 5 μl PBS/saline + 10 μl RBC lysis buffer + 5 μl ADP, lysed blood without ADP 360 nm, increase likely reflects platelet aggregation) [μm] | estimated particle size (average radius) (66 μl whole blood + 10 μl RBC lysis buffer + 5 μl ADP + 5 μl CPD, reverts to the lysed-blood level (360 nm), potentially indicating disaggregation of platelets) [nm]
Nc1ncnc2c1ncn2[C@@H]1O[C@H](COP(=O)(O)OP(=O)(O)O)[C@@H](O)[C@H]1O [ADP, Adenosine diphosphate] | 1.8 | –
COC(=O)[C@H](c1ccccc1Cl)N1CCc2sccc2C1 [CPD, clopidogrel bisulphate] | – | 367
